Data published in article PMC9321663, “The DevTox Germ Layer Reporter Platform: An Assay Adaptation of the Human Pluripotent Stem Cell Test” (Toxics, 2022).
Where two headings read alike, the source gives them in different places.

Legend:
[1] = system: SOX17 (endoderm marker) in RUES2-GLR cells; assay: DevTox GLR-Endo assay: decrease in percent SOX17-positive cells (AEID 3094, Sox17_dn); settings: for effect on SOX17-positive cells (in words): 48 h exposure during directed endoderm differentiation; for AC50: read-out: ga (winning model), tcpl plot AEID3094, gain parameter of winning curve fit (log concentration, µM axis), hit calls only (converted); for DevTox % Max Inhibition: Table S2, percent SOX17-positive cells relative to DMSO; for MAX_MEAN: tcpl plot AEID3094, maximum mean response; for MAX_MED: tcpl plot AEID3094, maximum median response
Protocol: (§1) The total test chemical incubation period was 48 h.
(§2) Assay plate controls included non-differentiated pluripotent cells maintained in complete Essential 8 Flex medium (baseline control), endoderm differentiated cells (differentiation control), endoderm differentiated cells treated with DMSO (0.2%) (solvent control), and TGF-ß receptor inhibitor SB431542 (1 µM)-treated cells (developmental toxicant-positive control) (Figure S3). All experiments were completed with a minimum of four biological replicates (n = 4).
(§3) (Supplementary Materials).

[2] = system: BRA (mesoderm marker) in RUES2-GLR cells; assay: DevTox GLR-Endo assay: increase in percent BRA-positive cells (AEID 3096, Bra_up); type: cell-based, human; set-up: tp (winning model): unit not given here; settings: for HIT−CALL: tcpl plot AEID3096, COFF 0.774; for MAX_MEAN: tcpl plot AEID3096, maximum mean response; for MAX_MED: tcpl plot AEID3096, maximum median response
Protocol: as §1, §3

[3] = system: SOX17 (endoderm marker) in RUES2-GLR cells; assay: DevTox GLR-Endo assay: increase in percent SOX17-positive cells (AEID 3093, Sox17_up); type: cell-based, human; settings: for Emax: Homo sapiens; for HIT−CALL: tcpl plot AEID3093, COFF 20.3
Protocol: as §1, §3

[4] = cited from earlier work; for Development Toxicant Classification: Table S2; for Classification: developmental toxicant classification (Teratogen / Non-Teratogen) of reference and training chemicals, ref DOI per chemical: 10.1093/toxsci/kft239, 10.1093/toxsci/kfaa014, 10.1177/026119290203000204, 10.1038/s41598-020-59542-x; for DT Class.: developmental toxicant classification, chemicals common with quickPredict
RUES2-GLR cells = assay: DevTox GLR-Endo assay: decrease in total cell count, cytotoxicity (AEID 3098, CellCount_dn); settings: for Emax: Homo sapiens, read-out: Cell Count % Max Inhibition; for Cell Count % Max Inhibition: Table S2, cell count relative to DMSO
Protocol: as §1, §2, §3

[5] = system: SOX2 (ectoderm and pluripotency marker) in RUES2-GLR cells; assay: DevTox GLR-Endo assay: increase in percent SOX2-positive cells (AEID 3095, Sox2_up); settings: for MAX_MEAN: tcpl plot AEID3095, maximum mean response; for MAX_MED: tcpl plot AEID3095, maximum median response;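 for all read-outs here: cells exposed to test chemicals for 48 h in total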
[6] = Homo sapiens, read-out: DevTox % Max Inhibition
[7] = Homo sapiens, read-out: MAX_MEAN
[8] = Homo sapiens, read-out: MAX_MED
[9] = Homo sapiens, read-out: tp (winning model)
[10] = Table S2, SOX17-positive cells, cutoff 3*bmad
[11] = Table S2, percent SOX17-positive cells, 48 h exposure
[12] = tcpl plot AEID3093, maximum mean response, read-out: MAX_MEAN
[13] = tcpl plot AEID3093, maximum median response, read-out: MAX_MED
[14] = Homo sapiens, read-out: maximum observed effect level class (% max inhibition)
[15] = DevTox GLR-Endo prediction against developmental toxicant classification
[16] = tcpl plot AEID3093, maximum mean response
[17] = tcpl plot AEID3093, maximum median response

Compound | Emax [1, 6] [%] | Emax [1, 7] [%] | Emax [1, 8] [%] | Hit Call [1, 10] | DevTox ACC [1, 11] [µM] | HIT−CALL ([1]; tcpl plot AEID3094, COFF 20.3) | HIT−CALL [2] | MAX_MEAN [2] [Percent Activity] | MAX_MED [2] [Percent Activity] | Emax [3, 12] [%] | Emax [3, 13] [%] | HIT−CALL [3] | Development Toxicant Classification [4] | Classification [4] | Emax (RUES2-GLR cells) [%] | MAX_MEAN [5] [Percent Activity] | MAX_MED [5] [Percent Activity] | DT Class. [4] | Cell Count ACC (RUES2-GLR cells; human, 48 h) [µM] | further results
Nc1cccc2c1C(=O)N(C1CCC(=O)NC1=O)C2=O (stereo not drawn) [Pomalidomide] | 95.9 | 95.3 | 95.9 | Positive | 0.01911 | 1 | 0 | 0.865 | 0.894 | 8.72 | 7.3 | 0 | Positive | Teratogen | 37.2 | 62.1 | 67.4 |  |  | effect on SOX17-positive cells (in words) [1]: significant reductions in the SOX17-positive sub-population; IC50 ([1]; Homo sapiens, 48 h): 0.05 µM; AC50 ([1]; Homo sapiens): 0.0661 µM; Emax [1, 9]: 94%; % Max Inhibition ([1]; maximum inhibition of SOX17-positive cells, reference chemical testing, 48 h exposure): 81%; Developmental Toxicant Classification ([4]; reference chemicals): Positive; Cell Count ACC (RUES2-GLR cells; Table S2, 48 h exposure): 0.27 µM; effect on cell counts (in words) (RUES2-GLR cells; reference chemical testing, increasing concentrations): cell counts remained constant; AC50 ([5]; Homo sapiens, read-out: ga (winning model)): 148 µM; Emax [5, 9]: 88.9%
O=P1(N(CCCl)CCCl)NCCCO1 (stereo not drawn) [Cyclophosphamide] | 7.49 | 6.4 | 7.49 |  |  |  | 0 | 0.871 | 0.897 |  |  | 0 | Positive | Teratogen | 25.6 | 0.952 | 0.491 | Pos |  | DevTox ACC [1]: >200 µM; HIT−CALL [1]: 0; Hit Call [1]: Negative; hit call designation (in words) [1]: false negative; Emax [1, 14]: 0 to 20%; Emax ([3]; read-out: MAX_MEAN): 8.69%; Emax ([3]; read-out: MAX_MED): 8.98%; Cell Count ACC (RUES2-GLR cells; human): 100.193 µM; DevTox-GLR Endo CC (RUES2-GLR cells; human): 100.19 µM; effect on cell count (in words) (RUES2-GLR cells; human): significant cell loss that did not impact SOX17-positive populations
CCCc1cc(=O)[nH]c(=S)[nH]1 | 16.6 | 14.7 | 16.6 | Negative | >200 | 0 | 1 | 0.944 | 0.969 | 7.44 | 8.97 | 0 |  | Teratogen | 12.9 | 0.595 | 0.601 | Pos | >200 | hit call designation (in words) [1, 15]: false negative; Emax [1, 14]: 0 to 20%
O=C1NC(=O)C(c2ccccc2)(c2ccccc2)N1 | 21 | 19.1 | 21 | Positive | 201.562 | 1 | 0 | 0.943 | 0.909 | 11.2 | 11.7 | 0 | Positive | Teratogen | 22.6 | 0.502 | 0.532 | Pos | 191.824 | AC50 ([1]; Homo sapiens): 191 µM; Emax [1, 9]: 32.6%; DevTox-GLR Endo ACC ([1]; activity concentration at cutoff, SOX17-positive cells, 48 h exposure): 201.56 µM; DevTox-GLR Endo CC (RUES2-GLR cells; human, 48 h): 191.82 µM
OB(O)O [Boric acid] |  |  |  | Negative | >200 | 0 | 0 | 0.818 | 0.83 |  |  | 0 |  | Teratogen |  | 0.45 | 0.453 | Pos |  | hit call designation (in words) [1, 15]: false negative; DevTox % Max Inhibition [1]: 16.7249%; maximum observed effect level class (% max inhibition) ([1]; stratification of training set chemicals): weak (weak (0–20% max inhibition)); MAX_MEAN [1]: 15.7 Percent Activity; MAX_MED [1]: 16.7 Percent Activity; MAX_MEAN [3, 16]: 7.53 Percent Activity; MAX_MED [3, 17]: 7.06 Percent Activity; Cell Count % Max Inhibition (RUES2-GLR cells): 12.3286%
CC(=O)Nc1ccc(O)cc1 [Acetaminophen] | 10.5 | 11.3 | 10.5 | Negative | >200 | 0 | 0 | 0.829 | 0.865 | 11.3 | 10.3 | 0 |  |  | 13.1 | 0.992 | 0.603 |  | >200 | effect on SOX17-positive cells (in words) [1]: no observed effect
D-Camphor |  |  |  | Negative | >200 | 0 | 1 | 0.906 | 0.891 |  |  | 0 |  |  |  | 0.902 | 0.451 |  |  | DevTox % Max Inhibition [1]: 9.33%; MAX_MEAN [1]: 8.81 Percent Activity; MAX_MED [1]: 9.33 Percent Activity; ga (winning model) ([2]; tcpl plot AEID3096, gain parameter of winning curve fit (log concentration, µM axis), hit calls only): −7; tp (winning model) ([2]; tcpl plot AEID3096, top of winning curve fit, hit calls only): 0.81; MAX_MEAN [3, 16]: 7.36 Percent Activity; MAX_MED [3, 17]: 11.6 Percent Activity; Cell Count % Max Inhibition (RUES2-GLR cells): 7.562%; HIT−CALL [5]: 0
